Measured values reported in ChEMBL document CHEMBL1153274, “Microwave-assisted synthesis of N-substituted cyclic imides and their evaluation for anticancer and anti-inflammatory activities” (2009).

Key:
Format in all cases: functional
SK-N-SH = experiment: Cytotoxicity against human SK-N-SH cells after 48 hrs by SRB assay
HEp-2 = experiment: Cytotoxicity against human Hep2 cells after 48 hrs by SRB assay
COLO 205 = experiment: Cytotoxicity against human COLO205 cells after 48 hrs by SRB assay
SW-620 = experiment: Cytotoxicity against human SW620 cells after 48 hrs by SRB assay
Rattus norvegicus [1] = experiment: Antiinflammatory activity against carrageenan-induced paw edema in albino rat at 50 mg/kg, po administered 30 mins before carrageenan challenge measured after 1 to 3 hrs
Rattus norvegicus [2] = experiment: Antiinflammatory activity against carrageenan-induced paw edema in albino rat at 100 mg/kg, po administered 30 mins before carrageenan challenge measured after 1 to 3 hrs
Rattus norvegicus [3] = experiment: Antiinflammatory activity against carrageenan-induced paw edema in albino rat at 25 mg/kg, po administered 30 mins before carrageenan challenge measured after 1 to 3 hrs

SMILES	growth inhibition (GI) (SK-N-SH)	growth inhibition (GI) (HEp-2)	growth inhibition (GI) (COLO 205)	growth inhibition (GI) (SW-620)	Activity (Rattus norvegicus [1])	Activity (Rattus norvegicus [2])	Activity (Rattus norvegicus [3])
O=C1c2nc[nH]c2C(=O)N1CCN1CCCCC1	22%	18%	10%	17%	0%	–	–
O=C1Cc2ccccc2CC(=O)N1Cc1ccco1	11%	17%	10%	17%	22%	–	–
O=C1c2nc[nH]c2C(=O)N1Cc1ccccn1	11%	17%	6%	33%	24%	–	–
O=C1c2nc[nH]c2C(=O)N1Cc1ccncc1	1%	26%	3%	43%	21%	–	–
O=C1Cc2ccccc2CC(=O)N1Cc1ccccn1	0%	11%	0%	37%	32%	–	–
O=C1Cc2ccccc2CC(=O)N1Cc1cccnc1	0%	6%	0%	22%	40%	67%	19%
O=C1Cc2ccccc2CC(=O)N1Cc1cccs1	1%	19%	4%	52%	34%	–	–
O=C1c2nccnc2C(=O)N1CCN1CCCCC1	10%	12%	2%	9%	16%	–	–
O=C1Cc2ccccc2CC(=O)N1CCN1CCCCC1	0%	15%	0%	45%	21%	–	–
O=C1c2nccnc2C(=O)N1Cc1ccccn1	11%	16%	6%	33%	29%	–	–
O=C1c2ccncc2C(=O)N1CCN1CCCCC1	13%	13%	1%	0%	12%	–	–
O=C1c2ccncc2C(=O)N1Cc1ccco1	0%	8%	0%	45%	24%	–	–
O=C1c2ccncc2C(=O)N1Cc1cccs1	12%	24%	4%	53%	35%	–	–
O=C1c2nccnc2C(=O)N1Cc1ccncc1	0%	11%	1%	36%	32%	–	–
O=C1c2ccncc2C(=O)N1Cc1ccccn1	10%	24%	4%	33%	27%	–	–
O=C1c2nccnc2C(=O)N1Cc1cccs1	12%	16%	7%	46%	31%	–	–
O=C1c2nc[nH]c2C(=O)N1Cc1cccs1	2%	15%	3%	23%	32%	–	–
O=C1c2nccnc2C(=O)N1Cc1ccco1	15%	11%	7%	12%	0%	–	–
O=C1c2ccncc2C(=O)N1Cc1ccncc1	9%	12%	12%	20%	33%	–	–
O=c1[nH]cc(F)c(=O)[nH]1 [FLUOROURACIL]	56%	40%	25%	44%	–	–	–
CO[C@@]12[C@H](COC(N)=O)C3=C(C(=O)C(C)=C(N)C3=O)N1C[C@@H]1N[C@@H]12 [MITOMYCIN]	85%	60%	41%	29%	–	–	–
CCCCC1C(=O)N(c2ccccc2)N(c2ccccc2)C1=O [PHENYLBUTAZONE]	–	–	–	–	37%	63%	17%
